assay: CHI Log D procedure; assay type: physicochemical; conditions: pH 7.4

| SMILES | CHI Log D | chromatographic logD |
| --- | --- | --- |
| CCCC[C@@H]1NC(=O)[C@H](CC(=O)O)NC(=O)[C@](C)(NC(=O)[C@@H](NC(=O)[C@H](CC(=O)O)NC(=O)[C@H](C)NC(C)=O)[C@@H](C)CC)CCN(C)C(=O)OCC=CCCCCC[C@@](C)(C(=O)N[C@@H](Cc2ccccc2)C(=O)N[C@@H](Cc2c[nH]c3ccccc23)C(=O)N[C@@H](Cc2c[nH]cn2)C(N)=O)NC(=O)[C@H](CCC(N)=O)NC(=O)[C@H](Cc2ccccc2)NC(=O)[C@H](C)NC(=O)[C@H](C)NC1=O [I-68, Ac-Ala-Asp-Ile-RdN-Asp-nLeu-Ala-Ala-Phe-Gln-S7-Phe-Trp-His-NH2] | 1.553 |  |
| CC(=O)N[C@@H](Cc1ccccc1)C(=O)N[C@@H](CC(=O)O)C(=O)N[C@@H](C)C(=O)NC12CN(C1)C(=O)OCC=CCCCCC[C@@](C)(C(=O)N[C@@H](Cc1ccccc1)C(=O)N[C@@H](Cc1c[nH]c3ccccc13)C(=O)N[C@@H](CCC(N)=O)C(N)=O)NC(=O)[C@H](C(C)C)NC(=O)[C@H](Cc1ccccc1)NC(=O)[C@H](C)NC(=O)[C@H](C)NC(=O)[C@H](CC(=O)O)NC(=O)[C@H](CC(=O)O)NC2=O [I-32, Ac-Phe-Asp-Ala-Az-Asp-Asp-Ala-Ala-Phe-Val-S7-Phe-Trp-Gln-NH2] | 1.243 |  |
| CC(=O)N[C@@H](Cc1ccccc1)C(=O)N[C@@H](CC(=O)O)C(=O)N[C@@H](C)C(=O)N[C@]1(C)CCN(C)C(=O)OCC=CCC[C@@](C)(C(=O)N[C@@H](Cc2ccccc2)C(=O)N[C@@H](Cc2c[nH]c3ccccc23)C(=O)N[C@@H](CCC(N)=O)C(N)=O)NC(=O)[C@H](C(C)C)NC(=O)[C@H](Cc2ccccc2)NC(=O)[C@H](C)NC(=O)[C@H](C)NC(=O)[C@H](CC(=O)O)NC(=O)[C@H](CC(=O)O)NC1=O [I-42, Ac-Phe-Asp-Ala-RdN-Asp-Asp-Ala-Ala-Phe-Val-S4-Phe-Trp-Gln-NH2] | 1.09 |  |
| CC[C@H](C)[C@H](NC(=O)[C@H](CC(=O)O)NC(=O)[C@H](C)NC(C)=O)C(=O)N[C@]1(C)CCN(C)C(=O)OCC=CCCCCC[C@@](C)(C(=O)N[C@@H](Cc2ccccc2)C(=O)N[C@@H](Cc2c[nH]c3ccccc23)C(=O)N[C@@H](C)C(N)=O)NC(=O)[C@H](C)NC(=O)[C@H](Cc2ccccc2)NC(=O)[C@H](C)NC(=O)[C@H](C)NC(=O)[C@H](CCC(=O)O)NC(=O)[C@H](CC(=O)O)NC1=O [I-154, Ac-Ala-Asp-Ile-RdN-Asp-Glu-Ala-Ala-Phe-Ala-S7-Phe-Trp-Ala-NH2] | 1.426 |  |
| CC(=O)N[C@@H](Cc1ccccc1)C(=O)N[C@@H](CC(=O)O)C(=O)N[C@@H](C)C(=O)N[C@]1(C)CCCCCCC=CCOC(=O)N2CC[C@@](C(=O)N[C@@H](Cc3ccccc3)C(=O)N[C@@H](Cc3c[nH]c4ccccc34)C(=O)N[C@@H](CCC(N)=O)C(N)=O)(C2)NC(=O)[C@H](C(C)C)NC(=O)[C@H](Cc2ccccc2)NC(=O)[C@H](C)NC(=O)[C@H](C)NC(=O)[C@H](CCc2ccccc2)NC(=O)[C@H](CC(=O)O)NC1=O (single isomer, unassigned) [I-98, Ac-Phe-Asp-Ala-R8-Asp-hPhe-Ala-Ala-Phe-Val-PyrS-Phe-Trp-Gln-NH2] |  | 2.08 |

More lines, main results first:

| CHI Log D | SMILES | chromatographic logD |
| --- | --- | --- |
| 1.686 | CC[C@H](C)[C@H](NC(=O)[C@H](CC(=O)O)NC(=O)[C@H](C)NC(C)=O)C(=O)N[C@]1(C)CCN(C)C(=O)OCC=CCCCCC[C@@](C)(C(=O)N[C@@H](Cc2ccccc2)C(=O)N[C@@H](Cc2c[nH]c3ccccc23)C(=O)N[C@@H](Cc2c[nH]cn2)C(N)=O)NC(=O)[C@H](CCC(N)=O)NC(=O)[C@H](Cc2ccccc2)NC(=O)[C@H](C)NC(=O)[C@H](C)NC(=O)[C@H](CCC(C)C)NC(=O)[C@H](CC(=O)O)NC1=O (single isomer, unassigned) [I-71, Ac-Ala-Asp-Ile-RdN-Asp-hLeu-Ala-Ala-Phe-Gln-S7-Phe-Trp-His-NH2] |  |
| 1.199 | CC(=O)N[C@@H](Cc1ccccc1)C(=O)N[C@@H](CC(=O)O)C(=O)N[C@@H](C)C(=O)N[C@]1(C)CCCCCCC=CCOC(=O)N2CC[C@@](C(=O)N[C@@H](Cc3ccccc3)C(=O)N[C@@H](Cc3c[nH]c4ccccc34)C(=O)N[C@@H](CCC(N)=O)C(N)=O)(C2)NC(=O)[C@H](C(C)C)NC(=O)[C@H](Cc2ccc(C(N)=O)cc2)NC(=O)[C@H](C)NC(=O)[C@H](C)NC(=O)[C@H](CC(=O)O)NC(=O)[C@H](CC(=O)O)NC1=O [I-92, Ac-Phe-Asp-Ala-R8-Asp-Asp-Ala-Ala-4CBMF-Val-PyrS-Phe-Trp-Gln-NH2] |  |
| 2.108 | CC(=O)N[C@@H](Cc1ccccc1)C(=O)N[C@@H](CC(=O)O)C(=O)N[C@@H](C)C(=O)N[C@]1(C)CCCCCCC=CCOC(=O)N2CC[C@@](C(=O)N[C@@H](Cc3ccccc3)C(=O)N[C@@H](Cc3c[nH]c4ccccc34)C(=O)N[C@@H](CCC(N)=O)C(N)=O)(C2)NC(=O)[C@H](C(C)C)NC(=O)[C@H](Cc2ccccc2)NC(=O)[C@H](C)NC(=O)[C@H](C)NC(=O)[C@H](CCC(C)C)NC(=O)[C@H](CC(=O)O)NC1=O (single isomer, unassigned) [I-18, Ac-Phe-Asp-Ala-R8-Asp-hLeu-Ala-Ala-Phe-Val-PyrS-Phe-Trp-Gln-NH2] |  |
| 0.827 | CC(=O)N[C@@H](Cc1ccccc1)C(=O)N[C@@H](CC(=O)O)C(=O)N[C@@H](C)C(=O)N[C@]1(C)CCCCCCC=CCOC(=O)N2CC[C@@](C(=O)N[C@@H](CCC(=O)O)C(=O)N[C@@H](Cc3c[nH]c4ccccc34)C(=O)N[C@@H](CCC(N)=O)C(N)=O)(C2)NC(=O)[C@H](C(C)C)NC(=O)[C@H](Cc2ccccc2)NC(=O)[C@H](C)NC(=O)[C@H](C)NC(=O)[C@H](CC(=O)O)NC(=O)[C@H](CC(=O)O)NC1=O (single isomer, unassigned) [I-162, Ac-Phe-Asp-Ala-R8-Asp-Asp-Ala-Ala-Phe-Val-PyrS-Glu-Trp-Gln-NH2] |  |

same assay, conditions: pH 7.4, CHI Log D

| SMILES | chromatographic logD |
| --- | --- |
| CCCC[C@@H]1NC(=O)C2(CCCC=CCCCCCC[C@@](C)(C(=O)N[C@@H](Cc3ccccc3)C(=O)N[C@@H](Cc3c[nH]c4ccccc34)C(=O)N[C@@H](CCC(N)=O)C(N)=O)NC(=O)[C@H](C(C)C)NC(=O)[C@H](Cc3ccccc3)NC(=O)[C@H](C)NC(=O)[C@H](C)NC(=O)[C@H](CCC(=O)O)NC1=O)CCCC=CC[C@]1(CCCN1C(C)=O)C(=O)N[C@@H](CC(=O)O)C(=O)N[C@@H](C)C(=O)N2 (stereo partly drawn) [I-205, Ac-PL3-Asp-Ala-B5-nLeu-Glu-Ala-Ala-Phe-Val-S8-Phe-Trp-Gln-NH2] | 3.84 |
| CCCC[C@@H]1NC(=O)[C@H](CC(=O)O)NC(=O)[C@](C)(NC(=O)[C@H](C)NC(=O)[C@H](CC(=O)O)NC(=O)[C@H](Cc2ccccc2)NC(C)=O)CCCCCCC=CCOC(=O)N2CC[C@@](C(=O)N[C@@H](Cc3ccccc3)C(=O)N[C@@H](Cc3c[nH]c4ccccc34)C(=O)N[C@@H](CCC(N)=O)C(N)=O)(C2)NC(=O)[C@H](C(C)C)NC(=O)[C@H](Cc2ccccc2)NC(=O)[C@H](C)NC(=O)[C@H](C)NC1=O (single isomer, unassigned) [I-13, Ac-Phe-Asp-Ala-R8-Asp-nLeu-Ala-Ala-Phe-Val-PyrS-Phe-Trp-Gln-NH2] | 2.01 |
| CC(=O)N[C@@H](Cc1ccccc1)C(=O)N[C@@H](CC(=O)O)C(=O)N[C@@H](C)C(=O)N[C@]1(C)CCN(C)C(=O)OCC=CCCCCC[C@@](C)(C(=O)N[C@@H](Cc2ccccc2)C(=O)N[C@@H](Cc2c[nH]c3ccccc23)C(=O)N[C@@H](CCC(N)=O)C(N)=O)NC(=O)[C@H](C(C)C)NC(=O)[C@H](Cc2ccccc2)NC(=O)[C@H](C)NC(=O)[C@H](C)NC(=O)[C@H](CC(=O)O)NC(=O)[C@H](CC(=O)O)NC1=O (single isomer, unassigned) [I-1, Ac-Phe-Asp-Ala-RdN-Asp-Asp-Ala-Ala-Phe-Val-S7-Phe-Trp-Gln-NH2] | 1.27 |
| CC(=O)N[C@@H](Cc1ccccc1)C(=O)N[C@@H](CC(=O)O)C(=O)N[C@@H](C)C(=O)N[C@]1(C)CCCCCCC=CCOC(=O)N2CC[C@@](C(=O)N[C@@H](CCC(=O)O)C(=O)N[C@@H](Cc3c[nH]c4ccccc34)C(=O)N[C@@H](CCC(N)=O)C(N)=O)(C2)NC(=O)[C@H](C(C)C)NC(=O)[C@H](Cc2ccccc2)NC(=O)[C@H](C)NC(=O)[C@H](C)NC(=O)[C@H](CC(=O)O)NC(=O)[C@H](CC(=O)O)NC1=O (single isomer, unassigned) [I-161, Ac-Phe-Asp-Ala-R8-Asp-Asp-Ala-Ala-Phe-Val-PyrS-Glu-Trp-Gln-NH2] | 0.816 |

Next, values leading:

| chromatographic logD | SMILES |
| --- | --- |
| 1.25 | CC(=O)N[C@@H](Cc1ccccc1)C(=O)N[C@@H](CC(=O)O)C(=O)N[C@]1(C)CCCCCCC=CCOC(=O)N2CC[C@@](C(=O)N[C@@H](C)C(=O)N[C@@H](Cc3ccccc3)C(=O)N[C@@H](Cc3c[nH]c4ccccc34)C(=O)N[C@@H](CCC(N)=O)C(N)=O)(C2)NC(=O)[C@H](Cc2ccccc2)NC(=O)[C@H](C)NC(=O)[C@H](C)NC(=O)[C@H](CC(=O)O)NC(=O)[C@H](CC(=O)O)NC(=O)[C@H](C)NC1=O [I-51, Ac-Phe-Asp-R8-Ala-Asp-Asp-Ala-Ala-Phe-PyrS-Ala-Phe-Trp-Gln-NH2] |
| 1.33 | CC(=O)N[C@@H](Cc1ccccc1)C(=O)N[C@@H](CC(=O)O)C(=O)N[C@@H](C)C(=O)N[C@]1(C)CCCCCCC=CCOC(=O)N2CC[C@@](C(=O)N[C@@H](Cc3ccccc3)C(=O)N[C@@H](Cc3c[nH]c4ccccc34)C(=O)N[C@@H](CCC(N)=O)C(N)=O)(C2)NC(=O)[C@H](C(C)C)NC(=O)[C@H](CC2CCCCC2)NC(=O)[C@H](C)NC(=O)[C@H](C)NC(=O)[C@H](CC(=O)O)NC(=O)[C@H](CC(=O)O)NC1=O (single isomer, unassigned) [I-74, Ac-Phe-Asp-Ala-R8-Asp-Asp-Ala-Ala-Cha-Val-PyrS-Phe-Trp-Gln-NH2] |
| 2.16 | CC(=O)N[C@@H](Cc1ccccc1)C(=O)N[C@@H](CC(=O)O)C(=O)N[C@@H](C)C(=O)N[C@]1(C)CCCCCCC=CCOC(=O)N2CC[C@@](C(=O)N[C@@H](Cc3ccccc3)C(=O)N[C@@H](Cc3c[nH]c4ccccc34)C(=O)N[C@@H](CCC(N)=O)C(N)=O)(C2)NC(=O)[C@H](C(C)C)NC(=O)[C@H](Cc2ccccc2)NC(=O)[C@H](C)NC(=O)[C@H](C)NC(=O)[C@@](C)(Cc2ccccc2)NC(=O)[C@H](CC(=O)O)NC1=O (single isomer, unassigned) [I-56, Ac-Phe-Asp-Ala-R8-Asp-aMeDF-Ala-Ala-Phe-Val-PyrS-Phe-Trp-Gln-NH2] |
